From the supplement of paper PMC10883282

Key:
Experiment in all cases: relative viability vs DMSO control (72 h) (fraction); higher = more viable cells
KHOS-240S = test system: KHOS-240S
Summary of the method: (§1)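 Percent growth from ATPLite readings, averaged over up to triplicate wells, was used as relative viability. Sarcoma cell lines were seeded into 384-well plates for 80–90% confluence, dosed after 24 h, and kept 72 h at 37 °C, 5% CO2. Data were rescaled to a range where 1 is full and 0 is none.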

SW982 = test system: SW982
Summary of the method: as §1

RD-ES = test system: RD-ES
Summary of the method: as §1

SK-ES-1 = test system: SK-ES-1
Summary of the method: as §1

RD = test system: RD
Summary of the method: as §1

Cc1cccc(-c2nn3c(c2-c2ccnc4ccc(C(N)=O)cc24)CCC3)n1 [Galunisertib]
relative viability
Details	KHOS-240S	RD	RD-ES	SK-ES-1	SW982
0.00017 µM	1.06	1.06	0.932	1.02	1
0.00051 µM	1.07	1.07	0.975	1.03	1.02
0.00152 µM	1.06	1.079	0.979	0.998	0.965
0.00457 µM	1.06	1.095	0.965	0.978	1
0.01372 µM	1.04	1.081	0.979	1.06	0.999
0.04115 µM	1.01	1.09	0.9533	1.02	0.98
0.1235 µM	0.996	1.071	0.92	0.946	0.974
0.3704 µM	0.971	1.05	0.915	0.996	0.977
1.111 µM	0.987	1.08	0.913	0.974	0.988
3.333 µM	0.966	1.12	0.886	0.96	0.98
10 µM	0.929	1.13	0.894	0.959	1.05

COc1cc(Nc2ncc(F)c(Nc3ccc4c(n3)N(COP(=O)(O)O)C(=O)C(C)(C)O4)n2)cc(OC)c1OC [Fostamatinib]
relative viability
Details	KHOS-240S	RD	RD-ES	SK-ES-1	SW982
0.00017 µM	1.08	1.09	0.9556	1.01	1.05
0.00051 µM	1.08	1.1	0.964	1.04	1.05
0.00152 µM	1.08	1.11	0.9726	1.03	1.04
0.00457 µM	1.08	1.1	0.958	1.049	1.06
0.01372 µM	1.07	1.11	0.972	1.01	1.053
0.04115 µM	1.07	1.13	0.9768	0.986	1.02
0.1235 µM	1.01	1.07	0.943	0.813	0.822
0.3704 µM	0.892	0.991	0.792	0.602	0.66
1.111 µM	0.559	0.96	0.715	0.831	0.507
3.333 µM	0.196	0.535	0.484	0.292	0.216
10 µM	0.0301	0.457	0.144	0.0769	0.128

CCc1cnn2c(NCc3ccc[n+]([O-])c3)cc(N3CCCC[C@H]3CCO)nc12 [Dinaciclib]
relative viability
Details	KHOS-240S	RD	RD-ES	SK-ES-1	SW982
0.00017 µM	0.954	0.828	0.937	0.939	0.9568
0.00051 µM	0.976	0.851	0.916	1	0.98
0.00152 µM	0.966	0.821	0.912	0.939	0.984
0.00457 µM	0.913	0.736	0.886	0.79	0.962
0.01372 µM	0.45	0.504	0.612	0.411	0.566
0.04115 µM	0.214	0.163	0.0429	0.0163	0.223
0.1235 µM	0.207	0.162	0.0102	0.0154	0.239
0.3704 µM	0.21	0.137	0.00417	0.00863	0.269
1.111 µM	0.218	0.119	0.0013	0.00557	0.267
3.333 µM	0.213	0.103	-0.0014	0.000967	0.25
10 µM	0.181	0.0835	-0.00263	-0.000867	0.227

CNC(=O)c1ccccc1Sc1ccc2c(/C=C/c3ccccn3)n[nH]c2c1 [Axitinib]
relative viability
Details	KHOS-240S	RD	RD-ES	SK-ES-1	SW982
0.00017 µM	1.05	0.981	0.962	0.9896	0.998
0.00051 µM	1.02	0.977	0.92	1.06	0.997
0.00152 µM	1.04	1	0.938	1.03	1
0.00457 µM	1.05	1.01	0.947	1.02	1.02
0.01372 µM	1.02	1.01	0.94	1.01	0.991
0.04115 µM	1.01	0.98	0.963	0.969	1.015
0.1235 µM	0.964	0.984	0.938	0.943	0.9984
0.3704 µM	0.802	0.892	0.871	0.829	0.96
1.111 µM	0.791	0.874	0.85	0.837	0.922
3.333 µM	0.495	0.465	0.729	0.499	0.409
10 µM	0.214	0.183	0.0832	0.0154	0.0993

Clc1ccc(Nc2nnc(Cc3ccncc3)c3ccccc23)cc1 [Vatalanib]
relative viability
Details	KHOS-240S	RD	RD-ES	SK-ES-1	SW982
0.00017 µM	1.03	1.09	0.987	0.978	1.03
0.00051 µM	1.06	1.1	0.954	0.987	1.02
0.00152 µM	1.05	1.1	0.975	0.968	1.04
0.00457 µM	1.04	1.095	0.983	1.04	1.05
0.01372 µM	1.04	1.093	0.967	1.03	1.06
0.04115 µM	1.01	1.08	0.959	1.01	1.0899
0.1235 µM	1.04	1.09	0.965	0.995	1.065
0.3704 µM	1.03	1.12	0.956	1.04	1.04
1.111 µM	0.986	1.12	0.989	1.05	1.03
3.333 µM	1.01	1.11	0.98	1.02	1.053
10 µM	1	1.03	0.947	0.91	1.03

Cc1cc2c(F)c(Oc3ncnn4cc(OC[C@@H](C)O)c(C)c34)ccc2[nH]1 [Brivanib]
relative viability
Details	KHOS-240S	RD	RD-ES	SK-ES-1	SW982
0.00017 µM	1.04	1.07	0.961	1.04	1.03
0.00051 µM	1.035	1.06	0.966	1.04	1.03
0.00152 µM	1.03	1.08	0.985	1.07	1.05
0.00457 µM	1.05	1.07	1	1.07	1.07
0.01372 µM	1.05	1.11	0.996	1.02	1.05
0.04115 µM	1.04	1.1	1	1.05	1.05
0.1235 µM	1.04	1.1	1.01	1.04	1.035
0.3704 µM	1.05	1.091	0.994	0.997	1.06
1.111 µM	1.03	1.08	1	1.022	1.034
3.333 µM	1.041	1.07	0.988	1.06	1.07
10 µM	0.961	0.964	0.947	0.952	1.06

CCN1C(=O)N(c2c(F)c(OC)cc(OC)c2F)Cc2cnc3[nH]c(CN4CCOCC4)cc3c21 [Pemigatinib]
relative viability
Details	KHOS-240S	RD	RD-ES	SK-ES-1	SW982
0.00017 µM	1.03	1.02	0.959	0.969	0.989
0.00051 µM	1.03	1.07	0.951	0.963	0.978
0.00152 µM	0.999	1.06	0.953	0.989	0.98
0.00457 µM	1	1.06	0.959	0.965	1
0.01372 µM	0.943	1.04	0.964	0.935	0.985
0.04115 µM	0.917	1.04	0.955	0.972	0.979
0.1235 µM	0.884	1.03	0.952	0.89	0.992
0.3704 µM	0.862	1.04	0.958	0.816	0.968
1.111 µM	0.841	0.946	0.859	0.599	0.715
3.333 µM	0.789	0.7043	0.7215	0.354	0.511
10 µM	0.687	0.665	0.54	0.2767	0.438

N#CC1(c2ccc(NC(=O)c3cccnc3NCc3ccncc3)cc2)CCCC1 [Apatinib]
relative viability
Details	KHOS-240S	RD	RD-ES	SK-ES-1	SW982
0.00017 µM	1.04	0.992	0.936	0.968	0.96
0.00051 µM	1.06	1.02	0.968	0.986	0.978
0.00152 µM	1.05	1.03	0.979	0.95	0.994
0.00457 µM	1.04	1.01	0.946	0.964	0.9695
0.01372 µM	1.04	1.02	0.942	1	0.99
0.04115 µM	1.05	1.01	0.961	0.991	1.009
0.1235 µM	1.03	1.02	0.955	0.999	1
0.3704 µM	0.991	1.01	0.902	1.01	0.958
1.111 µM	0.97	1.05	0.91	0.978	0.979
3.333 µM	0.956	1.09	0.892	0.936	0.975
10 µM	0.873	1.12	0.798	0.845	0.999

O=S(=O)(c1cccc2cnccc12)N1CCCNCC1 [Fasudil]
relative viability
Details	0.00051 µM	0.00152 µM	0.00457 µM	0.01372 µM	0.04115 µM	0.1235 µM	0.3704 µM	1.111 µM	3.333 µM	10 µM
KHOS-240S	0.974	0.976	0.961	0.966	0.957	0.961	0.959	0.952	0.942	0.8862
RD	0.969	0.985	0.952	0.978	0.963	0.956	0.961	0.999	1.05	1.06
RD-ES	0.957	0.9873	0.98	0.979	0.9688	0.98	1.009	1.005	1.01	1
SK-ES-1	0.955	0.964	0.963	0.967	0.996	0.989	1	1.02	1.06	1.04
SW982	0.974	0.974	0.966	0.987	0.976	0.971	0.961	0.977	0.962	0.966

CCN(CC)CCNC(=O)c1c(C)[nH]c(/C=C2\C(=O)Nc3ccc(F)cc32)c1C [Sunitinib]
relative viability
Details	KHOS-240S	RD	RD-ES	SK-ES-1	SW982
0.00017 µM	1.06	1.11	0.955	0.997	1.06
0.00051 µM	1.06	1.11	0.952	0.996	1.07
0.00152 µM	1.05	1.13	0.968	1.08	1.07
0.00457 µM	1.05	1.13	0.97	1.04	1.05
0.01372 µM	1.04	1.12	0.964	1.02	1.05
0.04115 µM	1.03	1.11	0.958	0.97	1.07
0.1235 µM	0.958	1.14	0.895	0.931	1.02
0.3704 µM	0.875	1.1	0.752	0.578	0.716
1.111 µM	0.655	0.958	0.276	0.215	0.413
3.333 µM	0.204	0.0418	0.0097	0.018	0.0113
10 µM	0.0104	0.00227	0.00923	0.0034	0.00423
